“Also recorded” adds a separate entry of the source. Where two headings read alike, the source gives them in different places.
What was measured:
Format in all cases: cell-based, rat
CSM14.1 cells [1] = experiment: Annexin V staining viability assay (flow cytometry), thapsigargin-treated undifferentiated CSM14.1 cells; details: hit compounds 25 μM, TG 15 μM
Method: Undifferentiated CSM14.1 cells were cultured as for FIG. 16. The next day, DMSO (a, b) (1% final volume), 100 μM Salubrinal (c, d) or 25 μM of hit compounds (1% final DMSO) was added. After two hrs, 15 μM TG was added to all wells except a and c. The plates were returned to culture for 24 hrs, then cells were recovered by trypsinization, transferred to 1.5 ml microcentrifuge tubes, and resuspended in 0.5 mL of Annexin V-binding solution. The percentage of annexin V-negative cells was determined by flow-cytometry (y-axis). Treatments and compounds were the same as in FIG. 16.
One method we have employed, for example, for confirming protection against TG-induced killing uses fluorochrome-conjugated annexin V staining with flow-cytometry analysis to evaluate the percentage cell viability by a method that is independent of the ATP content assay.
FIGS. 16 and 17 show the results of a secondary assay for evaluating the cytoprotective activity of the compounds. In FIG. 16, undifferentiated CSM14.1 cells were cultured at 10^4 cells per well of 24-well plates (Greiner Bio One). The next day, DMSO (a, b) (1% final volume), 100 μM Salubrinal (c, d) or 25 μM of hit compounds (1% final DMSO) was added. After two hrs, 15 μM TG was added to all wells except a and c. A conventional ATP assay was performed to measure survival rate. In FIG. 17 undifferentiated CSM14.1 cells were cultured at 10^4 cells per well of 24-well plates (Greiner Bio One). The next day, DMSO (a, b) (1% final volume), 100 μM Salubrinal (c, d) or 25 μM of hit compounds (1% final DMSO) was added. After two hrs, 15 μM TG was added to all wells except a and c. […] The percentage of annexin V-negative cells was determined by flow-cytometry (y-axis), using a FACSort instrument (Beckton-Dickinson). […]
7) The percentage of annexin V-negative cells was determined by flow-cytometry (y-axis), using a FACSort analysis facility in Burnham (Beckton & Dickinson)

CSM14.1 cells [2] = experiment: Primary HTS assay: ATP content (ATPlite) of undifferentiated CSM14.1 cells challenged with thapsigargin; details: for IC50: thapsigargin-induced death of undifferentiated CSM14.1, ATP content; for Protection against TG-induced cell death by Salubrinal: 100 μM Salubrinal, 15 μM TG, undifferentiated CSM14.1, ATP
Source text: For convenience, and because transient reductions in temperature that might be associated with large screening experiments could restore Large T activity, we elected to develop our HTS using undifferentiated CSM14.1 cells, with the plan to then confirm hits using differentiated cells. For monitoring cell death, we used a commercially available bioluminescence reagent that determines intracellular ATP content, without requirement for complicated cell processing steps (ATPlite, Perkin Elmer). Thus, ATP was used as a surrogate indicator of cell survival for the primary assay.
Undifferentiated or differentiated CSM14.1 cells were plated at a density of 3,000 cells/well in 40 μL DMEM medium (containing 10% serum, 1 mM L-glutamine, and antibiotics) in 96 well flat-bottom microtiter plates composed of polystrene (Greiner Bio One, polystyrene, white wall, flat bottom, lumitrac, high binding). After overnight incubation at 32° C., DMSO (0.5% v/v) or 100 uM Salubrinal (Sal) in DMSO was delivered. After 2 hrs, 5 uL of a stock solution of 150 uM TG in DMEM medium containing 0.75% (v:v) DMSO to achieve a final concentration of approximately 15 uM. After culturing for 24 hrs, cellular ATP content was measured by addition of 20 uL per well of ATPlite solution (Perkin-Elmer), and then the plates were incubated for three minutes at room temperature, before reading with a Microplate Luminometer (BD Pharmingen Moonlight model 3096).
To determine the reproducibility of the ATP content assay, we prepared a 96-well plate in which half the wells received TG plus DMSO (assay minimum) and half received TG plus Salubrinal (assay maximum), then performed the ATP content studies using undifferentiated CSM14.1 cells (FIG. 6). CSM14.1 cells were cultured overnight at 3,000 cells per well in 96-well flat-bottom plates, then either DMSO (0.5% final concentration) or Salubrinal (100 μM) in DMSO (0.5% final concentration) was added to half the well (48 each). After two hrs, TG was added to all wells (15 μM final). Cells were cultured for 24 hrs, then the ATP content was measured using the ATPlite luminogenic assay. We then adapted this assay to the high-throughput environment, using a Biomex™ FX liquid handler for automated dispensing of assay components into microwells of 96-well plates. First, undifferentiated CSM14.1 cells were grown at 32° C. in DMEM medium supplemented with 10% fetal bovine serum (FBS), 1% penicillin/streptomycin, and 1% L-glutamine in 150 mm×25 mm polystyrene culture dishes to produce approximately 3×10^6 cells. Second, CSM14.1 cells were recovered from cultures by trypsinization when at 80-90% confluence, and suspended at 7.5×10^4 cells/mL in DMEM medium containing 2% FBS, 1 mM L-glutamine, and antibiotics 100 IU penicillin 100 μg/ml streptomycin. Third, the cell suspension was then delivered at 40 μL per well of 96-well plastic microtiter plates (Greiner Bio One, polystyrene, white wall, flat bottom, lumitrac, high binding, cat #655074), and the plates were cultured overnight at 32° C. in a humidified atmosphere in 95% air: 5% CO2. Fourth, using the automated liquid handler, 5 μL of test compounds in 10% DMSO were added to wells in columns 2-11 of the 96-well plates (leaving columns 1 and 12 intact) to achieve an approximate final concentration of 15 μg/mL test compound and a final concentration of 1% DMSO. Fifth, 5 μL of 1 mM Salubrinal in a solution of 10% DMSO:90% DMEM was added to wells of column 1/rows A-D of each plate, while 5 μL of 10% DMSO:90% DMEM solution was added to wells corresponding to column 1/rows E-H and to all wells in column 12. Sixth, the plates were returned to culture.

CSM 14.1 cells = experiment: MTS assay of thapsigargin-induced death of CSM 14.1 cells; details: salubrinal two hours before 7.5 mM thapsigargin, 18 hours
Method: CSM 14.1 cells were plated at a density of 3×10^3 cells per well in 96-well plates and incubated overnight. The indicated concentration of salubrinal was pre incubated with cells for two hours, followed by […] thapsigargin treatment. 18 hours later, cell death rates were measured by the MTS assay. For the MTS assay, the CellTiter 960 Aqueous Non-radioactive Cell Proliferation Assay kit (Promega) was used. The reaction-ready solution was made according to the manufacturer's protocol, and each treated well of the 96-well plate was incubated with 20 μl of the reaction-ready solution. The plates were incubated humidified cell incubator at 37° C. with 5% CO2 for two hours, and the absorbance of each well was read by an ELISA plate reader at 490 nm wavelength. To determine the background level of absorbance, the same volume of culture media (DMEM without cells) was incubated with MTS solution. The background value was subtracted from the value of each well. Background values from the control treatment (no TG, no Sal) wells were set as 100% survival, and the experimental wells' values were evaluated as the percentage of the control value.

[3] = tested on: differentiated CSM14.1 cells; experiment: ATP content assay, thapsigargin-treated differentiated CSM14.1 cells; details: compound 25 μM with 10 μM thapsigargin, Salubrinal 100 μM
Method: Of the 26 compounds shown in Table 9, 16 were subsequently confirmed to protect differentiated CSM14.1 cells from TG-induced cell death. For these assays, CSM14.1 cells were differentiated by culture in 2% FBS for 7 days at non-permissive temperature of 39° C. […] CSM14.1 cells were plated at 1,500 cells per well in 96-well plates, and cultured overnight at 32° C. (permissive temperature; FIG. 14, left) or at 39° C. (non-permissive temperature, FIG. 14, right) for 7 days. […] ATP content was measured, and data were expressed as a percentage of control cells treated only with 1% DMSO (mean ±SD; n=3). Two percent FBS was used during differentiation, but all assays were performed in 10% FBS.
For PC12, cells were stimulated with 20 ng/ml NGF for five days; for C17.2, cells were stimulated with serum reduction, and 1% N2 incubation for three days; for CSM14.1, cells were cultured at 39° C. for 5-7 days.
CSM14.1 cells were plated at 1,500 cells per well in 96-well plates and cultured at 39° C. (non-permissive temperature) for 7 days. […] ATP content was measured and data were expressed as a percentage of control cells treated with only 1% DMSO.

CSM14.1 cells [4] = experiment: Tunicamycin-induced cell death of CSM14.1 cells; details: 100 μm salubrinal; stated in the description of FIG. 13 (tunicamycin, annexin V flow cytometry)
Method: CSM 14.1 cells were plated at a density of 3×10^3 cells/well in 96-well plates and incubated overnight. Cells were pre-incubated with 25 μM of each compound or 100 μM salubrinal for two hours, followed by […] tunicamycin treatment. 72 hours later, cell death rates were measured by flow cytometry analysis. Annexin V-negative population was considered as survivors. In FIG. 13, the white column represents 0.5% DMSO control showing 24% of survival, and the gray column 100 μM salubrinal. Black columns are data from each compound (25 μM) (compound numbers refer to the compounds in Table 9).
For the experiments shown in FIG. 18, undifferentiated CSM 14.1 cells were plated at 3,000 cells per well in 96-well plates (for the ATP assay) or at 1×10^4 cells per well in 24-well plates (for flow cytometry). The next day, cells were treated with DMSO (0.5%) or hit compounds 25 μM of a compound with 0.5% DMSO final concentration) for two hours, followed by treatment with various cell death-inducing reagents, including 15 μM Thapsigargin (TG) for 24 hrs, 10 μg/mL tunicamycin (TU) for 72 hrs, 2.5 μM staurosporine (STS) for 24 hrs, 50 μM VP16 for 48 hrs, or 30 ng/mL TNF plus 10 μg/mL cyclohexamide (CHX) for 24 hrs. Cellular ATP content was measured for staurosporine samples and TNF/CHX samples, normalizing data relative to cells treated with DMSO alone (the control) and presenting as a percentage of control. For measuring cell death resulting from treatment with tunicamycin and VP16, flow cytometry was used. All assays were performed in triplicate (mean ±SD).

CSM14.1 cells [5] = experiment: Pilot dose-response of thapsigargin on undifferentiated CSM14.1 cells (ATP content, vital dye exclusion)
Method: In pilot experiments, undifferentiated CSM14.1 cells were plated at various densities in wells of a 96 well plate, cultured overnight, then the ATP content of the cells was measured using the luminogenic ATPlite reagent (FIG. 4A). We also performed dose-response experiments for thapsigargin (FIG. 4B) by culturing CSM14.1 cells at 3,000 cells per well overnight, then treating the cells with various concentrations of TG or Sal and cultured for 18 hrs before determining ATP content (mean ±SD; n=3) (FIG. 4B). Similarly, we performed dose response experiments for Salubrinal (Sal). Cells were plated and cultured as above, then treated with various concentrations of Salubrinal, followed two hrs later by 15 uM TG. Cells were cultured for 18 hrs, then ATP content was determined (mean ±SD; n=3) (FIG. 4C). […] As a control, we employed Salubrinal, which was reported to block ER stress-induced cell death (Boyce et al., Science, 307:935-939, 2005).

COc1cccc(CN2CCN(C(=O)c3ccc(-c4ccccc4)cc3)CC2)c1 [Compound 5998734]
Protection against TG-induced cell death measured by annexin V staining (CSM14.1 cells [1]): less active
IC50 (CSM14.1 cells [2]; first assay, read-out: IC50 (μM), first value): 20 ± 0.493 µM
IC50 (CSM14.1 cells [2]; second assay (value in bold), read-out: IC50 (μM), value from a second assay): 14.6 ± 26.6 µM

O=C(/C=C/c1ccccc1)NC(NC(=S)Nc1cccc2cccnc12)C(Cl)(Cl)Cl (stereo not drawn) [Salubrinal, reference compound]
Inhibition of thapsigargin-induced cell death, MTS assay (CSM 14.1 cells): less efficiently than our hit compounds
Protection of differentiated CSM14.1 cells from thapsigargin-induced death [3]: protects
Inhibition of tunicamycin-induced cell death (CSM14.1 cells [4]): 75%
Protection against TG-induced cell death by Salubrinal (CSM14.1 cells [2]): significantly protected; also recorded: protects
Protection against TG-induced cell death by Salubrinal (CSM14.1 cells [2]; listed as Sal): protects

C/C=C(/C)C(=O)O[C@H]1C(C)=C2[C@H]([C@@H]1OC(=O)CCCCCCC)[C@@](C)(OC(C)=O)C[C@H](OC(=O)CCC)[C@@]1(O)[C@H]2OC(=O)[C@@]1(C)O [thapsigargin]
reduction in ATP per well (CSM14.1 cells [5]; 15 μM thapsigargin, 3,000 cells per well, 18 hrs): ~95%
cell killing (CSM14.1 cells [5]; 15 μM thapsigargin, vital dye exclusion assays): ~95%

O=C(CN1CC[n+]2c(-c3cccs3)csc21)c1ccccc1.[Br-] [Compound 5979207]
Protection against TG-induced cell death measured by annexin V staining (CSM14.1 cells [1]): less active
Activity against thapsigargin-induced cell death / cell protection (CSM14.1 cells [2]; cell death assay used for primary screening): potent inhibitor of cell death

— patent US20080293699A1, “Inhibitors of thapsigargin-induced cell death” (priority 2007, published 2008)
